“Also recorded” adds a separate entry of the source. Like-named read-outs stand apart in the source and are kept apart here.
Tests used:
[1] = test system: colonic tumor of mouse, colon 26; assay: Antitumor Activity Tests (2) and (3): complete regression of colon 26 tumor in CDF1 mice (Example 2); format: in vivo; settings: palpation on 60th day
Protocol: (§1) Stilbene derivatives of formulas (3), (4) and (5), and Cisplatin and Carboplatin were bolusly injected into the tail vein on the 7th, 11th and 15th days as described in Tables 3 through 6 below.
Antitumor effects: Complete regression of the colonic tumor was determined by palpation. Subjects in which the tumor had not been ascertained by palpation on the 60th day were deemed to have their tumors completely cured.
(§2) The terms: [+CBDCA] and [+CDDP] indicate that 50 mg/kg/day of carboplatin or 5 mg/kg/day of cisplatin were administered, respectively. The terms: [−CBDCA] and [−CDDP] indicate that no carboplatin or cisplatin were administered. The dosages of cisplatin and carboplatin denote the maximum dosages without death due to toxicity in the administration schedule in the present embodiment.

[2] = Safety Tests (2) and (3): rate of body weight change in colon 26 tumor-bearing CDF1 mice (Example 2); format: in vivo; settings: 21st day vs 7th day
Protocol: as §1, §2
Body weight change on the 21st day was calculated using the equation described in Example 1.

[3] = test system: murine colonic tumor, colon 26; assay: Antitumor Activity Test (1): complete regression of colon 26 tumor in CDF1 mice (Example 1); format: in vivo; settings: for Number of instances of complete regression of tumors: palpation on 60th day; for Complete regression (curing) of tumors in mice, in words: in combination with Cisplatin
Protocol: Antitumor effects: Complete regression of the colonic tumor was determined by palpation. Subjects in which the tumor has not been ascertained by palpation on the 60th day were deemed to have their tumors cured completely.

[4] = for Rate of Body Weight Change: 21st day vs 7th day; for Body weight decrease, in words: in combination with Cisplatin
Protocol: Methodology. 10 mg of a murine colonic tumor, colon 26, was inoculated under the skin of the back of CDF1 mice (day 0). After one week, the tumor was measured to calculate the volume of the tumor and the mice were classified into several groups (each group: n=5) and administration of the stilbene derivative and Cisplatin was started. On days 7, 11 and 15, the tumor-inoculated mice were bolusly injected under the skin of their backs and into their tail veins with 1 mg of the stilbene derivative of formula (3) in 1 ml of physiological saline solution and 0.5 mg of Cisplatin (“randa Inj”) in a volume of 1 ml. Control and comparative groups of mice were similarly injected with the other drug combinations described in Table 1. The comparative drug Vindesine is an antitumor drug used in combination with Cisplatin by Garalla et al. VP-16 is also a chemotherapeutic drug which is often used clinically in combination with Cisplatin.
As indicated in Table 1 the term [−CDDP] means that Cisplatin was not administered at all. The term [+CDDP] means that Cisplatin was administered in an amount of 5 mg/kg/day. The term [n.d.] means that no testing was performed.
Safety. The rate of body weight change was used as a measure of safety as significant loss of body weight is undesirable in cancer patients. Body weight change was calculated using the following equation: Rate of body weight change (%)=[{(body weight−weight of the tumor) at the 21st day}−{(body weight−weight of the tumor) at the 7th day}]/{body weight−weight of the tumor) at the 7th day}×100.
Using the above equation, the rate of body weight change at the 21st day was calculated.

[5] = Solubility in water (statement)
[6] = Control, +CBDCA: carboplatin alone 50 mg/kg/day
[7] = Control, +CDDP: cisplatin alone 5 mg/kg/day
[8] = +CDDP (cisplatin 5 mg/kg/day), sample 5 mg/kg/day

Structure (SMILES): [NH2][Pt]1([NH2])[O]C(=O)C2(CCC2)C(=O)[O]1 [CBDCA, diammine(1,1-cyclobutane dicarboxylate) platinum (II), reference compound]
- Number of instances of complete regression of tumors [1, 6]: 0/6
- Rate of Body Weight Change [2, 6]: −9.6%

Structure (SMILES): N.N.[Cl][Pt][Cl] [CDDP, cis-diamminedichloroplatinum (II), reference compound]
- Number of instances of complete regression of tumors ([3]; Control, +CDDP: Cisplatin alone 5 mg/kg/day on days 7, 11, 15): 0/5
- Rate of Body Weight Change [4, 7]: −11.1%
- Number of instances of complete regression of tumors [1, 7]: 0/6
- Rate of Body Weight Change [2, 7]: −11.4%

Structure (SMILES): COc1ccc(/C=C\c2cc(OC)c(OC)c(OC)c2)cc1NC(=O)C(N)CO [Compound (3), (Z)-1-(3-amino-4-methoxyphenyl)-2-(3,4,5-trimethoxyphenyl)-ethene-L-serine amide]
- Number of instances of complete regression of tumors ([3]; +CDDP (Cisplatin 5 mg/kg/day), sample 5 mg/kg/day on days 7, 11, 15): 1/5
- Number of instances of complete regression of tumors ([3]; +CDDP (Cisplatin 5 mg/kg/day), sample 10 mg/kg/day on days 7, 11, 15): 4/5
- Number of instances of complete regression of tumors ([3]; −CDDP, sample 10 mg/kg/day on days 7, 11, 15): 0/5
- Rate of Body Weight Change ([4]; +CDDP (Cisplatin 5 mg/kg/day), sample 10 mg/kg/day): −1.9%
- Rate of Body Weight Change [4, 8]: −4.2%
- Body weight decrease, in words [4]: did not cause significant decreases in body weight
- Rate of Body Weight Change ([4]; −CDDP, sample 10 mg/kg/day, tumor weight subtracted): −7.7%
- Number of instances of complete regression of tumors ([1]; +CBDCA (carboplatin 50 mg/kg/day), sample 20 mg/kg/day, tail vein, 7th, 11th, 15th days): 1/6
- Number of instances of complete regression of tumors ([1]; −CBDCA, sample 20 mg/kg/day, tail vein, 7th, 11th, 15th days): 0/6
- Rate of Body Weight Change ([2]; +CBDCA (carboplatin 50 mg/kg/day), sample 20 mg/kg/day): 1.8%
- Rate of Body Weight Change ([2]; −CBDCA, sample 20 mg/kg/day): −7.4%
- Solubility in water, in words [5]: soluble in water

Structure (SMILES): COc1ccc(/C=C(/C#N)c2cc(OC)c(OC)c(OC)c2)cc1N [Compound (4)]
- Number of instances of complete regression of tumors ([1]; +CDDP (cisplatin 5 mg/kg/day), sample 5 mg/kg/day, tail vein, 7th, 11th, 15th days): 4/6
- Number of instances of complete regression of tumors ([1]; −CDDP, sample 5 mg/kg/day, tail vein, 7th, 11th, 15th days): 0/6
- Rate of Body Weight Change [2, 8]: −13.9%
- Rate of Body Weight Change ([2]; −CDDP, sample 5 mg/kg/day): −7.0%

Structure (SMILES): COc1ccc(/C=C\c2cc(OC)c(OC)c(OC)c2)cc1N [Compound (5)]
- Number of instances of complete regression of tumors ([1]; +CDDP (cisplatin 5 mg/kg/day), sample 20 mg/kg/day, tail vein, 7th, 11th, 15th days): 6/6
- Number of instances of complete regression of tumors ([1]; −CDDP, sample 20 mg/kg/day, tail vein, 7th, 11th, 15th days): 0/6
- Rate of Body Weight Change ([2]; +CDDP (cisplatin 5 mg/kg/day), sample 20 mg/kg/day): −0.3%
- Rate of Body Weight Change ([2]; −CDDP, sample 20 mg/kg/day): −2.1%

Structure (SMILES): COc1cc([C@@H]2c3cc4c(cc3[C@@H](O[C@@H]3O[C@@H]5CO[C@@H](C)O[C@H]5[C@H](O)[C@H]3O)[C@H]3COC(=O)[C@H]23)OCO4)cc(OC)c1O [VP-16, reference compound]
- Number of instances of complete regression of tumors ([3]; +CDDP (Cisplatin 5 mg/kg/day), sample 30 mg/kg/day on days 7, 11, 15): 0/5
- Complete regression (curing) of tumors in mice, in words [3]: complete tumor regression was not observed
- Number of instances of complete regression of tumors ([3]; −CDDP, sample 30 mg/kg/day on days 7, 11, 15): 0/5
- Rate of Body Weight Change ([4]; +CDDP (Cisplatin 5 mg/kg/day), sample 30 mg/kg/day): −9.9%
- Body weight decrease, in words [4]: high rates of body weight loss
- Rate of Body Weight Change ([4]; −CDDP, sample 30 mg/kg/day): −1.0%

Structure (SMILES): CC[C@]1(O)C[C@@H]2CN(CCc3c([nH]c4ccccc34)[C@@](C(=O)OC)(c3cc4c(cc3OC)N(C)[C@H]3[C@@](O)(C(N)=O)[C@H](O)[C@]5(CC)C=CCN6CC[C@]43[C@@H]65)C2)C1 [Vindesine]
- Number of instances of complete regression of tumors ([3]; +CDDP (Cisplatin 5 mg/kg/day), sample 2 mg/kg/day on days 7, 11, 15): 0/5
- Complete regression (curing) of tumors in mice, in words [3]: complete curing of tumors in mice has not been observed; also recorded: complete tumor regression was not observed

Reference: patent US7655696B2, “Anti-tumor composition” (Ajinomoto Co., Inc., priority 1998, dated 2010)
